Assay [1] has as its target α2A (Alpha 2A) adrenergic receptor (Homo sapiens, UniProt P08913). Briefly: R-SAT competitive antagonist assay. Conditions: nr = no significant antagonist or inverse agonist activity up to 1 μM, nr* = nr but significant agonist activity.
For assay [2], the target named is T1, M1 muscarinic receptor (Homo sapiens, UniProt P11229).
T1 sequence (P11229 1-460): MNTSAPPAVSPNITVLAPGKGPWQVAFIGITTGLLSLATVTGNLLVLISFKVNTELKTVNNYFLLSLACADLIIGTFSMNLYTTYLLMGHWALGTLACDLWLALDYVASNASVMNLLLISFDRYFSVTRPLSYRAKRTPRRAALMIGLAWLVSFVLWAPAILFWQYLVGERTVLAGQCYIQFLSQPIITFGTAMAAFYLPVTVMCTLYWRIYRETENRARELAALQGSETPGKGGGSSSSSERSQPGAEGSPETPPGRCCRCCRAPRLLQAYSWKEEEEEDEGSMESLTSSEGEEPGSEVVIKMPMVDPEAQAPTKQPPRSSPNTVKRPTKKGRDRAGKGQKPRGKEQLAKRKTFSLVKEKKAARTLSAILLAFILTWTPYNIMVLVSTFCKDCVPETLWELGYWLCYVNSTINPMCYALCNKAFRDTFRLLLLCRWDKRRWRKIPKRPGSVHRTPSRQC

The subject of the next assay is Ca^2+ channels. In words: Ligand binding screen at 10 μM.
Another assay addresses T2, 5-HT1A receptor (Homo sapiens, UniProt P08908).
T2 sequence (P08908 1-422): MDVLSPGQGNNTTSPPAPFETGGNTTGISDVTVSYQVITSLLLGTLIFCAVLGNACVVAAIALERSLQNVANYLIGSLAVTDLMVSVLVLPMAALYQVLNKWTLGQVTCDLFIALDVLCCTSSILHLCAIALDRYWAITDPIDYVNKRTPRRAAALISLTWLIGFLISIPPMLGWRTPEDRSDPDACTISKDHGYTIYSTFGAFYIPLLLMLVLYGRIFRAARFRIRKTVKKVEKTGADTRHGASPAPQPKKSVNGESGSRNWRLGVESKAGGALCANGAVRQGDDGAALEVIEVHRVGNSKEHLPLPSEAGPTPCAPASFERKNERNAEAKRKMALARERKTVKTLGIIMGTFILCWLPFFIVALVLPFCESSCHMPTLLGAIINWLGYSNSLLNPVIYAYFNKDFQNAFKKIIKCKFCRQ
Briefly: R-SAT competitive antagonist assay. The settings on record: R-SAT; nr = no significant antagonist or inverse agonist activity up to 1 μM; nr* = nr but significant agonist activity.

The target in another assay is H1 receptors (Homo sapiens, UniProt P35367). Briefly: Ligand binding screen at 10 μM.
Sequence of H1 receptors (P35367 whole entry): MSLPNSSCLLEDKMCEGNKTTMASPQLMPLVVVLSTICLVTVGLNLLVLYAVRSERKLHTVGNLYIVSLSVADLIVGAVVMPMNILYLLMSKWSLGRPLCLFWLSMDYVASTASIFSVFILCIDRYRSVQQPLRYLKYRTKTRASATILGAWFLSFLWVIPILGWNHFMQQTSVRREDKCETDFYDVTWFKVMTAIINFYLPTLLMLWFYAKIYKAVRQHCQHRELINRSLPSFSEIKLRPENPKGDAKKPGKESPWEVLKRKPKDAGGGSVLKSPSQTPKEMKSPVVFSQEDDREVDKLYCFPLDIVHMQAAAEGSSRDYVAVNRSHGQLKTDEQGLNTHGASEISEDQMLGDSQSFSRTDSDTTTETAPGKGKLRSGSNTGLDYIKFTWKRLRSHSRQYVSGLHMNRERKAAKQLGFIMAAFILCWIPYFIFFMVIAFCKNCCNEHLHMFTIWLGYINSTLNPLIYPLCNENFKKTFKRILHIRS
In assay [3] the target is T1, M1 muscarinic receptor. In words: cell-based.
Assay [4] concerns the target T1, M1 muscarinic receptor. Briefly: R-SAT competitive antagonist assay. It counts as cell-based. Conditions: nr = no significant antagonist or inverse agonist activity up to 1 μM, nr* = nr but significant agonist activity. More on the design: expressed in transfected cells; host or cells: NIH/3T3.
For assay [5], the target named is T1, M1 muscarinic receptor. In words: R-SAT agonist assay. Type of assay: cell-based. More on the design: expressed in transfected cells; host or cells: NIH/3T3.
The next assay addresses M3 muscarinic receptor (Homo sapiens, UniProt P20309). Briefly: R-SAT competitive antagonist assay. The settings on record: nr = no significant antagonist or inverse agonist activity up to 1 μM, nr* = nr but significant agonist activity, read-out: pKi M3, competitive antagonist (converted). Type of assay: cell-based.
Assay [6] deals with MK-801-induced hyperactivity. Briefly: Reversal of MK-801-induced hyperactivity. Type of assay: in vivo, Non-Swiss Albino (NSA) mice. The source says: Clinically effective antipsychotic drugs can block the behavioral effects of non-competitive N-methyl-D-aspartate […], such as MK-801. […]. […]
In assay [7] the test system is amphetamine-induced hyperactivity. In words: Reversal of amphetamine-induced hyperactivity. It counts as in vivo, Non-Swiss Albino (NSA) mice. Conditions: s.c. or p.o.
For the next assay, the target named is 5HT7 receptors (Homo sapiens, UniProt P34969). In words: Ligand binding screen at 10 μM.
Sequence of 5HT7 receptors (P34969 whole entry): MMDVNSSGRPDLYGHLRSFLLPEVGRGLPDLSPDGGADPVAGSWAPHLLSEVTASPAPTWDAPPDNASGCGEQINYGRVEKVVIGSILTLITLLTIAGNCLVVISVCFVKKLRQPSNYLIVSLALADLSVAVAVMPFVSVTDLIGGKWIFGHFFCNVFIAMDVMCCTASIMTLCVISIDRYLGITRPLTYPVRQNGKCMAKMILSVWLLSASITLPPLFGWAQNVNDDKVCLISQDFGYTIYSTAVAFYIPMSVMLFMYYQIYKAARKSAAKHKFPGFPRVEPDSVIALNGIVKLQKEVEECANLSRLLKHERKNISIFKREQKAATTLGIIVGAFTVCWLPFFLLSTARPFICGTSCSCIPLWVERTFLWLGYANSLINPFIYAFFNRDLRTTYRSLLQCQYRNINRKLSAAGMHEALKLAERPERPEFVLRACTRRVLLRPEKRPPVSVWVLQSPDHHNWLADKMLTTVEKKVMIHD
The target of another assay is T3, M2 muscarinic receptor (Homo sapiens, UniProt P08172).
T3 sequence (P08172 1-466): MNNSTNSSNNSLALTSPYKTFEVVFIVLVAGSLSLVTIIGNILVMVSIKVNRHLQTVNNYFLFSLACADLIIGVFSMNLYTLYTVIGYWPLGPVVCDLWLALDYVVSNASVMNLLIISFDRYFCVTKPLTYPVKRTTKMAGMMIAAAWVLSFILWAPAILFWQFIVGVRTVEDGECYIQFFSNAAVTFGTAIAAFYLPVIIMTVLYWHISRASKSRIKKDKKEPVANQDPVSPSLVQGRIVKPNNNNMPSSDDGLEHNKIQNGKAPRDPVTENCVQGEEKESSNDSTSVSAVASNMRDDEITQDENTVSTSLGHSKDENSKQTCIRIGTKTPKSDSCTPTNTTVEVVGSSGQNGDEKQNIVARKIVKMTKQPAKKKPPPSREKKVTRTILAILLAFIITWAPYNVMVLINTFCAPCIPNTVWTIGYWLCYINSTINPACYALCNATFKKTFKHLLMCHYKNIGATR
In words: R-SAT agonist assay.

The structures appear in SMILES notation. Several values for one entry are separate records, joined by “and”; a condition that tells them apart may be missing. Equal values may be shown once.

Sequence of α2A (Alpha 2A) adrenergic receptor (P08913 whole entry): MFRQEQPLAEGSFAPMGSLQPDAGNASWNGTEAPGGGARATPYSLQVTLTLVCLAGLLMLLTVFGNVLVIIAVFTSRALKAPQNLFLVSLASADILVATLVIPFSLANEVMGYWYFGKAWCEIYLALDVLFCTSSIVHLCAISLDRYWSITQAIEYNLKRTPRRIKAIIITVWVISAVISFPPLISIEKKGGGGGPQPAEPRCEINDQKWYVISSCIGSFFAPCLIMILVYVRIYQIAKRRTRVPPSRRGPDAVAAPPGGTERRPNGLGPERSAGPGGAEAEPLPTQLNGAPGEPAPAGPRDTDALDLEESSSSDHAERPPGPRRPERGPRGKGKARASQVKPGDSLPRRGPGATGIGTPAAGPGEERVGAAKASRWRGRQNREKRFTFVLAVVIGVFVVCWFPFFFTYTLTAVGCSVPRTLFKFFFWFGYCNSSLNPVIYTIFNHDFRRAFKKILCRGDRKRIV
Sequence of M3 muscarinic receptor (P20309 whole entry): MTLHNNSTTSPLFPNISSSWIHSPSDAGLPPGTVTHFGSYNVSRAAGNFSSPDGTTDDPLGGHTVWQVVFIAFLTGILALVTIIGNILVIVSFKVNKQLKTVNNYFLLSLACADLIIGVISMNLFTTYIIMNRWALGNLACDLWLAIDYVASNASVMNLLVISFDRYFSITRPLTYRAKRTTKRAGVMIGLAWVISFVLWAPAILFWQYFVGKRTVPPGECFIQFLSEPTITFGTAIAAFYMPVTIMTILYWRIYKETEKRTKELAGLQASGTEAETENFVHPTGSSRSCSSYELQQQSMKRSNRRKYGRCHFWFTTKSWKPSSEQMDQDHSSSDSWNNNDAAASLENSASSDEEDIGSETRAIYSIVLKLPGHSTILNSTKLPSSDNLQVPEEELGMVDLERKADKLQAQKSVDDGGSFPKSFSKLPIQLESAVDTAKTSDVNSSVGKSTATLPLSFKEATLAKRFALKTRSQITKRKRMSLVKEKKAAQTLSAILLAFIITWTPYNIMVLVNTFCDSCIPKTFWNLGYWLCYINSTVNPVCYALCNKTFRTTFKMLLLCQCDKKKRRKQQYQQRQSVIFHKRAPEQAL

For `Clc1ccc2c(c1)N=C(N1CCNCC1)c1ccccc1N2` [NDMC, 8-chloro-11-(1-piperazinyl)-5H-dibenzo [b,e][1,4] diazepine], the “pKi α2A, competitive antagonist” value in assay [1] is “nr and nr^”. The “pKi, competitive antagonist” value on M1 muscarinic receptor [2] (PI hydrolysis in the presence of 3-micromolar carbachol) is recorded as “no response”. Besides, the “M1 % Efficacy” value on M1 muscarinic receptor [2] (PI hydrolysis, relative to carbachol, listed as N-desmethylclozapine) is reported as 65 ± 10%. For the same compound, the “inhibition of binding, Ca^2+ channels” value in the assay with Ca^2+ channels is listed as not below 90%. Also, the “pKi 5-HT1A, competitive antagonist” value at 5-HT1A receptor was “nr and nr^1”. Further, the inhibition at 10 µM on H1 receptors and at 5HT7 receptors was not below 90% each time. For the same compound, the Emax at M1 muscarinic receptor [3] (CHO, read-out: M1 % Efficacy, PI hydrolysis, relative to carbachol) was determined as 56%. Besides, the 50% effective concentration (EC50) – broadly, the concentration at which the effect is half-maximal – on M1 muscarinic receptor [3] (M1 pEC50, PI hydrolysis, agonist) is 200 nM; on M1 muscarinic receptor [3] (potency, M1 agonist, PI hydrolysis, n=3) it was 93 nM; on M1 muscarinic receptor [5] (M1 pEC50, R-SAT agonist), 55 nM and 50.1 nM; on M2 muscarinic receptor (M2 pEC50, R-SAT agonist), 339 nM and 316 nM. For the same compound, on M1 muscarinic receptor [4], the “pKi M1, competitive antagonist” value was “nr*”. For the same compound, the results for the Ki at M1 muscarinic receptor [5] and on M3 muscarinic receptor were 50 nM and 158 nM, respectively. Further, the entries for the “minimal effective dose, attenuation of MK-801-induced hyperactivity” value in [6] (p.o.) and in [6] (s.c.) were 10 mg/kg and 1 mg/kg, respectively. Further, in [7], the “dose that attenuated amphetamine-induced hyperactivity” value came to 10 mg/kg. Also, at M2 muscarinic receptor (R-SAT, relative to carbachol, No response/nr = no agonist activity up to 10 μM), the “M2 Efficacy” value was determined as 106 ± 19%.

The values are drawn from patent US20050085463A1 (priority 2003, published 2005).
